Experiment [1] concerns Human Peripheral Blood-derived APC. As to the kind of experiment: Pharmacological Test 1: autologous MLR assay with human peripheral blood-derived APCs pretreated with KRN7000. The conditions noted are these: KRN7000 100 ng/mL, 40 hours; conclusion from autologous MLR. The class given is cell-based. As for the experimental part:
This experiment was designed to study an effect of KRN7000 (Compound No.14, a representative glycoside compound of the invention) on APCs prepared from human peripheral blood. The APCs (mainly comprised of dendritic cells) derived from human peripheral blood were prepared essentially according to the method of Hsu et al. (supra). Briefly, human peripheral blood was layered over Ficoll-Paque and centrifuged at 2,000 rpm for 35 minutes to give a mononuclear cell fraction. A portion of the mononuclear cell fraction was suspended into PBS (Ca^++, Mg^++ free) supplemented with 5% of inactivated human AB serum. The resultant solution was layered over 50% Percol, and then centrifuged at 3,000 rpm for 20 minutes to give a high-density fraction. The high-density fraction was panned using a human γ-globulin-coated dish to remove FcR^+ cells therefrom (i.e., a monocyte-removed fraction). The resultant fraction was reacted with anti-CD3 monoclonal antibodies, anti-CD21 monoclonal antibodies and anti-CD56 monoclonal antibodies. […]
The APCs (5×10^4 cells/well) and the responder cells (1×10^5 cells/well) both prepared in the above steps were added to wells of a 96-well flat-bottomed plate, and then subjected to autologous MLR assay. […] The amount of the ^3H-TdR taken up into the cells was determined using a liquid scintillation counter. […]

Experiment [2] has as its system Murine T cell lymphoma EL-4 cells. As to the kind of experiment: Pharmacological Test 4: APC therapy of EL-4-bearing mice, survival period. The class given is in vivo, mouse. As to the method:
To study an anti-tumor effect of murine spleen-derived APCs activated with KRN7000 on mice implanted with tumor cells, experiments were performed with BDF1 mice (6-week-old, female). All experiments included 6 mice per group. Murine T cell lymphoma EL-4 cells were injected intravenously into each mouse at a level of 1×10^5 cells/mouse (injection day: day 0). On day 1, the vehicle-pretreated APCs (V-APC) and the KRN7000-pretreated (100 ng/mL) APCs (KRN-APC) both prepared in the same manner as in Pharmacological Test 3 were each injected intravenously into the mice at a level of 5×10^5 cells/mouse. As a positive control, KRN7000 was injected intravenously into the mice at a dose of 100 μg/kg on days 1, 5 and 9. Each mouse was checked for a sign of life daily to determine its survival period.

Experiment [3] has as its system Murine colon adenocarcinoma Colon26 cells. As to the kind of experiment: Pharmacological Test 6: APC therapy of mice implanted intrasplenically with Colon26 cells, liver weight. The class given is in vivo, mouse. As for the experimental part:
The experiment was performed to study an anti-tumor effect of murine bone marrow-derived APCs activated with KRN7000 on mice implanted with tumor cells. All experiments were performed with CDF1 mice (6-week-old, female), which were divided into groups consisting of 5 mice. Murine colon adenocarcinoma Colon26 cells were implanted into each mouse intrasplenically at a level of 2×10^6 cells/mouse (inoculation day: day 0). On day 1, the vehicle-pretreated APCs (V-APC) and the KRN7000-pretreated (100 ng/mL) APCs (KRN-APC) both prepared in the same manner as in Pharmacological Test 5 were individually injected intravenously to the mice at a level of 8×10^5 cells/mouse. As a positive control, KRN7000 was injected intravenously to the mice at a dose of 100 μg/kg on days 1, 5 and 9. On day 14, the liver was removed from each of the mice and weighed. Here, the liver from the mouse that had not been implanted with the tumor cells was about 1 g. Accordingly, the substantial tumor weight was determined by subtracting 1 g from the weight of the liver of the tumor-implanted mouse.

Experiment [4] has as its system Murine melanoma B16 cells. As to the kind of experiment: Pharmacological Test 8: APC therapy of mice with subcutaneous B16 melanoma, tumor volume. The class given is in vivo, mouse. The conditions noted are these: KRN7000 100 μg/kg i.v. on days 1, 5 and 9 (positive control). As for the experimental part:
The experiment was performed with BDF1 mice (6-week-old, female), which were divided into groups consisting of 6 mice. Murine melanoma B16 cells were implanted subcutaneously into each mouse at a level of 1.5×10^6 cells/mouse (implantation day: day 0). Several types of pretreated APCs were prepared in the same manner as in Pharmacological Test 3, in which APCs were pretreated with a vehicle (DMSO, final concentration: 0.1%) (V-APC), with both the vehicle (DMSO, final concentration: 0.1%) and a B16-tumor cell lysate (V-T-APC), with KRN7000 (final concentration: 100 ng/mL) (KRN-APC), and with both KRN7000 (final concentration: 100 ng/mL) and a B16-tumor cell lysate (KRN-T-APC), respectively. Each of the pretreated APCs was injected intravenously into the mice at a dose of 5×10^5 cells/mouse on day 1. As a positive control, KRN7000 was injected intravenously into the mice at a dose of 100 μg/kg on days 1, 5 and 9. The volume of the subcutaneous tumor in each mouse was measured.

Experiment [5] relates to Human Peripheral Blood-derived APCs. Kind of experiment: Pharmacological Test 9: allogeneic MLR assay with human peripheral blood monocyte-derived APCs cultured 3 days. The class given is cell-based. To be noted: conclusion from Pharmacological Tests 9, 10 and 11; KRN7000 100 ng/mL. As for the experimental part: A monocyte fraction was prepared from human peripheral blood mononuclear cells by Percol density-gradient centrifugation. The monocyte fraction was cultured in the presence or absence of GM-CSF (50 ng/mL) and IL-4 (100 ng/mL), and simultaneously either a vehicle (v; DMSO, 0.1%) or KRN7000 (KRN; 100 ng/mL) was added thereto. After culturing for 3 days, the cells were collected and washed with the medium 3 times to give V-APC, KRN-APC, V-APC-GM and KRN-APC-GM (where “GM” refers to the APCs cultured in the presence of GM-CSF and IL-4), which were then provided for use as APCs. As responder cells, human peripheral blood-derived FcR^− cells were used to perform allogeneic MLR assay.

Experiment [6] concerns Human Umbilibal Cord Blood-derived APC. Kind of experiment: Pharmacological Test 12: autologous MLR assay with human umbilical cord blood monocyte-derived APCs. The class given is cell-based. To be noted: KRN7000 100 ng/mL. As for the experimental part:
A monocyte fraction was prepared from human umbilical cord blood mononuclear cells by Percol density-gradient centrifugation. The monocyte fraction was cultured in the presence of GM-CSF (50 ng/mL) and IL-4 (100 ng/mL), and simultaneously either a vehicle (V; 0.1% DMSO) or KRN7000 (KRN; 100 ng/mL) was added thereto. After culturing for 3 days, the cells were recovered and washed with the medium 3 times to give V-APC-GM and KRN-APC-GM, respectively, which were provided for use as APCs. As response cells, human umbilical cord blood-derived FcR^− cells were used for autologous MLR assay.

The test system of experiment [7] is dendritic cell-rich APCs prepared from the murine spleen. The conditions noted are these: Koezuka 1995; Yamaguchi 1996; cited from earlier work.
Where [8] appears, read: KRN7000 100 μg/kg i.v. 3 times versus KRN-APC once.

As for `CCCCCCCCCCCCCCCCCCCCCCCCCC(=O)N[C@@H](CO[C@H]1O[C@H](CO)[C@H](O)[C@H](O)[C@H]1O)[C@H](O)[C@H](O)CCCCCCCCCCCCCC` [KRN7000, (2S,3S,4R)-1-(α-D-galactopyranosyloxy)-2-hexacosanoylamino-3,4-octadecanediol], in experiment [1], the “activating effect on APCs (antigen-presenting function enhancing effect)” value is “has an activating effect on the APCs prepared from human peripheral blood”. Moreover, the survival period result in experiment [2] (EL-4 i.v. day 0, KRN7000 100 μg/kg i.v. on days 1, 5 and 9 (positive control)) is “remarkable increase in survival period”. Also, the “potency of the survival effect compared with one injection of KRN-APC” value in experiment [2] (setting [8]) is “weaker than that when KRN-APC was injected only once”. Moreover, in experiment [3] (setting [8]), the “tumor growth inhibitory effect compared with one injection of KRN-APC” value is recorded as “at the same level as that when KRN-APC was injected once”. Further, the “inhibitory effect on tumor growth (liver weight on day 14)” value in experiment [3] (KRN7000 100 μg/kg i.v. on days 1, 5 and 9 (positive control)) is “remarkable inhibitory effect on tumor growth”. Moreover, in experiment [4], the “tumor growth-inhibitory effect (volume of the subcutaneous tumor)” value was “tumor growth-inhibitory effect”. Moreover, the “activation of APCs from human peripheral blood” value in experiment [5] is recorded as “can activate the APCs from human peripheral blood by various methods”. The “activation of APCs derived from human umbilical cord blood” value in experiment [6] is on record as “can activate the APCs derived from human umbilical cord blood by various methods”. In addition, in experiment [7], the “enhancement of the functions of dendritic cell-rich APCs from murine spleen” value was “can enhance the functions of dendritic cell-rich APCs prepared from the murine spleen”.

The values are drawn from patent publication US7029671B1, “Method for activating human antigen-presenting cells, activated human antigen-presenting cells, and use thereof” (Kirin Brewery Company, Limited, priority 1996, dated 2006).
